Experiments:
[1] = tested on: Colinus virginianus; conditions: acute; oral; mortality
[2] = tested on: Rattus norvegicus
[3] = tested on: Bibionidae; conditions: chronic/long-term; duration: 26 days; other
[4] = tested on: Tagia sp.; conditions: acute; duration: 14 days; mortality
[5] = tested on: Oncorhynchus mykiss
[6] = tested on: Coturnix japonica; conditions: reproduction developmental; duration: 8 weeks; reproduction
[7] = tested on: Bird; conditions: short-term; oral; feed; mortality
[8] = tested on: Daphnia magna; conditions: chronic/long-term; duration: 21 days; growth
[9] = tested on: Apis mellifera; conditions: acute; duration: 48 hours; oral; unspecified; mortality
[10] = tested on: Macromiidae; conditions: acute; duration: 72 hours; growth
[11] = tested on: Folsomia candida; conditions: chronic/long-term; duration: 28 days
[12] = tested on: Aphidius rhopalosiphi; assay: LR50; higher = less toxic; conditions: not reported; mortality

O=C(Nc1ccccc1)N(Cc1ccc(Cl)cc1)C1CCCC1 [Pencycuron]
LD50 [1]: > 2000 mg/kg
LD50 ([2]; acute, oral, mortality): > 5000 mg/kg
NOAEL ([2]; chronic, duration: 2 years): 18 mg/kg-day
NOAEL ([2]; reproduction developmental, body weight): 32 mg/kg-day
NOEC [3]: ≥ 0.3 mg/L
LC50 [4]: > 10000 mg/kg
LC50 ([5]; acute, duration: 96 hours, mortality): > 0.3 µg/mL
NOEC ([5]; chronic/long-term, duration: 94 days, growth): 0.0832 mg/L
NOEL [6]: ≥ 122 mg/kg-day
LC50 [7]: > 1750 mg/kg-day
NOEC [8]: 0.0496 mg/L
LD50 [9]: > 98.5 µg/piece
NOEC [10]: > 0.3 mg/L
NOEC [11]: 60 mg/kg
LR50 [12]: 685 g/ha
